Laboratory results published in patent publication US12630528B2, “Amino aryl derivative useful as diacylglycerol acyltransferase 2 inhibitor and use thereof” (LG CHEM, LTD., priority 2019, dated 2026).

Molecular target: T1, human DGAT2 (Homo sapiens, UniProt Q96PD7)
T1 construct: FLAG (DYKDDDDK); made in house; host or cells: Sf-21 insect cells (BacPAK baculovirus system); membrane fraction used
T1 sequence (Q96PD7 1-388): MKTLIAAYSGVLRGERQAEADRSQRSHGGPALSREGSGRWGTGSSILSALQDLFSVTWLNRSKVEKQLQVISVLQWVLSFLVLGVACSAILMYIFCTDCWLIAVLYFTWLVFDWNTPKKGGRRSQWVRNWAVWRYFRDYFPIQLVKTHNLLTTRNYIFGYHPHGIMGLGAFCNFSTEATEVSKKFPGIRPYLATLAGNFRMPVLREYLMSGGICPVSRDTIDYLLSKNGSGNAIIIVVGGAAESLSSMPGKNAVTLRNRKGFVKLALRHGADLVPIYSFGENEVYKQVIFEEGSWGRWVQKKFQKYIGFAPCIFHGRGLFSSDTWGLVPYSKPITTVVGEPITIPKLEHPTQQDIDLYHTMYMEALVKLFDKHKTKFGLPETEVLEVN
Test: DGAT2 enzyme activity inhibition, Phospholipid FlashPlate SPA
Assay type: biochemical
Conditions: recombinant human DGAT2 membrane protein from Sf-21 cells; inhibition of [14C]-TG production; 37° C.
Experimental: In order to prepare the pBacPAK9-DGAT2, which is DGAT2 expression vector, the human DGAT2 gene amplified by polymerase chain reaction (PCR) was cloned into the EcoR1 and Xho1 sites of the pBacPAK9 (clonctech) vector. The nucleotide sequence of the primers used in PCR was the forward primer 5′ […] (SEQ. ID. NO: 2). The composition of the reaction solution was to contain 50 ng of cDNA clone (OriGene), 200 μM of dATP, dCTP, dTTP, dGTP, 200 nM of each primer, 1 unit of Tag DNA Polymerase (Toyobo), 1×PCR buffer, and the final volume was adjusted to 20 μl. The reaction conditions were denatured at 95° C. for 5 minutes, followed by 30 times of 94° C. for 20 seconds, 60° C. for 20 seconds, and 72° C. for 90 seconds, followed by further reaction at 72° C. for 7 minutes.
Recombinant human DGAT2 protein was expressed in Sf-21 cells, which are insect cells, by using the BacPack baculovirus expression system (Clontech). The brief manufacturing process is as follows. First, the pBacPAK9-DGAT2 expression vector was transfected with BacPAK6 virus DNA (Bsu36I digest) into sf21 cells using Bacfectin to prepare a recombinant DGAT2 expressing baculovirus. The thus prepared baculovirus was infected with Sf-21 cells at 10 MOI (multiplicity of infection), and after 72 hours, infected insect cells were collected and membrane proteins were isolated. For membrane protein separation, the cell pellet was dissolved in a sucrose solution containing 250 mM sucrose, 10 mM Tris (pH 7.4), and 1 mM ethylenediamine-tetraacetic acid (EDTA), and then homogenized by using a dounce homogenizer, and the supernatant was taken by centrifuging at 600×g for 15 minutes, and centrifuged at 100,000×g for 1 hour to discard the supernatant, and the remaining pellet was resuspended in 20 mM HEPES buffer (pH 7.4). The prepared DGAT2 overexpressing membrane protein was dispensed in 100 μl and stored at −80° C. until use. Protein concentration was quantified by using the BCA Protein Assay Kit (Thermo Scientific).
In vitro DGAT2 analysis was performed using a Phospholipid Flash Plate (PerkinElmer) based on the principle of SPA (Scintilation Proximity Assay). First, DGAT2 inhibition compounds serially diluted 5 times from 3 nM to 10 μM (final concentration, 1% DMSO) were mixed in a buffer solution containing 2 μg DGAT2-membrane protein and 20 mM HEPES, 20 mM MgCl2, 1 mg/mL BSA, 50 μM 1,2 sn-oleoyl glycerol (Sigma), put in a 96-well flash plate (FlashPlate) and reacted at 37° C. for 20 minutes, and then 1 μM [14C] ole oil CoA (PerkinElmer, NEC651050UC) was added to be a final volume of 100 μL and further reacted at 37° C. for 15 minutes. After the enzymatic reaction was completed, 100 μL of isopropanol was added, the plate was sealed with a film, and the plate was shaken slowly in a plate shaker. The next day, the amplified scintillation signal (cpm) in Topcounter (Packard) was measured to measure the degree of production of [14C]-labeled triacyl glycerol (TG) as a reaction product. The measured value when the compound was not treated was used as a positive control, and the measured value of the compound treated group was calculated as a relative % to measure the inhibition effect of the compound on TG production.

SMILES | IC50 [nM]
CCOc1ccccc1O[C@@H]1CCCN(c2cncc(Nc3ccc(C)c(-c4cccc(CC(C)(C)C(=O)O)c4)n3)n2)C1 [Example 111, (R)-3-(3-(6-((6-(3-(2-ethoxyphenoxy)piperidin-1-yl)pyrazin-2-yl)amino)-3-methylpyridin-2-yl)phenyl)-2,2-dimethylpropanoic Acid] | 2200
CCOc1ccccc1O[C@@H]1CCCN(c2nccc(Nc3nccc(-c4cccc(CC(C)(C)C(=O)O)c4)n3)n2)C1 [Example 149, (R)-3-(3-(2-((2-(3-(2-ethoxyphenoxy)piperidin-1-yl)pyrimidin-4-yl)amino)pyrimidin-4-yl)phenyl)-2,2-dimethylpropanoic Acid] | 5000
CCOc1ccccc1O[C@@H]1CCCN(c2cncc(Nc3ncc(C(=O)O)cn3)n2)C1 [Example 114, (R)-2-((6-(3-(2-ethoxyphenoxy)piperidin-1-yl)pyrazin-2-yl)amino)pyrimidine-5-carboxylic Acid] | > 10000
CCOc1ccccc1O[C@@H]1CCCN(c2cncc(Nc3ccc(C(F)(F)F)c(-c4ccc(C(C)(C)C(=O)O)cc4)n3)n2)C1 [Example 109, (R)-2-(4-(6-((6-(3-(2-ethoxyphenoxy)piperidin-1-yl)pyrazin-2-yl)amino)-3-(trifluoromethyl)pyridin-2-yl)phenyl)-2-methylpropanoic Acid] | 1500
CCOc1cccnc1O[C@@H]1CCCN(c2cncc(Nc3cccc(-c4cc(OC(C)(C)C(=O)O)ccc4F)n3)n2)C1 [Example 85, (R)-2-(3-(6-((6-(3-((3-ethoxypyridin-2-yl)oxy)piperidin-1-yl)pyrazin-2-yl)amino)pyridin-2-yl)-4-fluorophenoxy)-2-methylpropanoic Acid] | 220
CCOc1ccccc1O[C@@H]1CCCN(c2cncc(Nc3ncc(C(=O)O)s3)n2)C1 [Example 1, (R)-2-((6-(3-(2-ethoxyphenoxy)piperidin-1-yl)pyrazin-2-yl)amino)thiazole-5-carboxylic Acid] | 6200
CCOc1cccnc1O[C@@H]1CCCN(c2cncc(Nc3nc(-c4cccc(OC(C)(C)C(=O)O)c4)ccc3F)n2)C1 [Example 104, (R)-2-(3-(6-((6-(3-((3-ethoxypyridin-2-yl)oxy)piperidin-1-yl)pyrazin-2-yl)amino)-5-fluoropyridin-2-yl)phenoxy)-2-methylpropanoic Acid] | 170
CCOc1ccccc1O[C@@H]1CCCN(c2cncc(Nc3nc(-c4ccccc4)co3)n2)C1 [Example 9, (R)—N-(6-(3-(2-ethoxyphenoxy)piperidin-1-yl)pyrazin-2-yl)-4-phenyloxazol-2-amine] | 2300
CCOc1ccccc1O[C@@H]1CCCN(c2cncc(Nc3cc[nH]n3)n2)C1 [Example 19, (R)-6-(3-(2-ethoxyphenoxy)piperidin-1-yl)-N-(1H-pyrazol-3-yl)pyrazin-2-amine] | 1700
CCOc1ccccc1O[C@@H]1CCCN(c2cncc(Nc3cccc(-c4ccc(OC(C)(C)C(=O)O)cc4)n3)n2)C1 [Example 82, (R)-2-(4-(6-((6-(3-(2-ethoxyphenoxy)piperidin-1-yl)pyrazin-2-yl)amino)pyridin-2-yl)phenoxy)-2-methylpropanoic Acid] | 120
CCOc1cccnc1O[C@@H]1CCCN(c2cncc(Nc3cccc(-c4cccc(OC(C)(C)C(=O)O)c4)n3)n2)C1 [Example 81, (R)-2-(3-(6-((6-(3-((3-ethoxypyridin-2-yl)oxy)piperidin-1-yl)pyrazin-2-yl)amino)pyridin-2-yl)phenoxy)-2-methylpropanoic Acid] | 200
CCOc1ccccc1O[C@@H]1CCCN(c2cncc(Nc3ccc(F)c(-c4cccc(CC(C)(C)C(=O)O)c4)n3)n2)C1 [Example 102, (R)-3-(3-(6-((6-(3-(2-ethoxyphenoxy)piperidin-1-yl)pyrazin-2-yl)amino)-3-fluoropyridin-2-yl)phenyl)-2,2-dimethylpropanoic Acid] | 140
CCOc1ccccc1O[C@@H]1CCCN(c2cncc(Nc3cccc(OCc4ccc(C(=O)O)cc4)n3)n2)C1 [Example 99, (R)-4-(((6-((6-(3-(2-ethoxyphenoxy)piperidin-1-yl)pyrazin-2-yl)amino)pyridin-2-yl)oxy)methyl)benzoic Acid] | 570
CCOc1ccccc1O[C@@H]1CCCN(c2cccc(Nc3nccc(-c4cccc(CC(C)(C)C(=O)O)c4)n3)n2)C1 [Example 148, (R)-3-(3-(2-((6-(3-(2-ethoxyphenoxy)piperidin-1-yl)pyridin-2-yl)amino)pyrimidin-4-yl)phenyl)-2,2-dimethylpropanoic Acid] | 3100
CCOc1ccccc1O[C@@H]1CCCN(c2cncc(Nc3nccc(N4CCC(C(=O)O)C4)n3)n2)C1 (stereo partly drawn) [Example 118, 1-(2-((6-((R)-3-(2-ethoxyphenoxy)piperidin-1-yl)pyrazin-2-yl)amino)pyrimidin-4-yl)pyrrolidine-3-carboxylic Acid] | 2000
CCOc1ccccc1O[C@@H]1CCCN(c2cncc(Nc3ccc(-c4cccc(CC(C)(C)C(=O)O)c4)nc3)n2)C1 [Example 48, (R)-3-(3-(5-((6-(3-(2-ethoxyphenoxy)piperidin-1-yl)pyrazin-2-yl)amino)pyridin-2-yl)phenyl)-2,2-dimethylpropanoic Acid] | 1800
CCOc1ccccc1O[C@@H]1CCCN(c2cncc(Nc3cccc(N4CCC(C)(C(=O)O)C4)n3)n2)C1 (stereo partly drawn) [Example 53, 1-(6-((6-((R)-3-(2-ethoxyphenoxy)piperidin-1-yl)pyrazin-2-yl)amino)pyridin-2-yl)-3-methylpyrrolidine-3-carboxylic Acid] | 510
CCOc1cccnc1O[C@@H]1CCCN(c2cncc(Nc3ccnc(-c4cccc(CC(C)(C)C(=O)O)c4)n3)n2)C1 [Example 171, (R)-3-(3-(4-((6-(3-((3-ethoxypyridin-2-yl)oxy)piperidin-1-yl)pyrazin-2-yl)amino)pyrimidin-2-yl)phenyl)-2,2-dimethylpropanoic Acid] | 240
CCOc1cccnc1O[C@@H]1CCCN(c2cncc(Nc3ccc(F)c(-c4cccc(CC(C)(C)C(=O)O)c4)n3)n2)C1 [Example 103, (R)-3-(3-(6-((6-(3-((3-ethoxypyridin-2-yl)oxy)piperidin-1-yl)pyrazin-2-yl)amino)-3-fluoropyridin-2-yl)phenyl)-2,2-dimethylpropanoic Acid] | 300
CCOc1ccccc1O[C@@H]1CCCN(c2cncc(Nc3ccn(CC(=O)O)n3)n2)C1 [Example 20, (R)-2-(3-((6-(3-(2-ethoxyphenoxy)piperidin-1-yl)pyrazin-2-yl)amino)-1H-pyrazol-1-yl)acetic Acid] | > 10000
CCOc1ccccc1O[C@@H]1CCCN(c2cncc(Nc3ccc(C(C)(C)C(=O)O)cc3)n2)C1 [Example 27, (R)-2-(4-((6-(3-(2-ethoxyphenoxy)piperidin-1-yl)pyrazin-2-yl)amino)phenyl)-2-methylpropanoic Acid] | > 10000
CCOc1ccccc1O[C@@H]1CCCN(c2cncc(Nc3cc(-c4cccc(CCC(=O)O)c4)ccn3)n2)C1 [Example 46, (R)-3-(3-(2-((6-(3-(2-ethoxyphenoxy)piperidin-1-yl)pyrazin-2-yl)amino)pyridin-4-yl)phenyl)propanoic Acid] | 1800
